Assay results as given in patent US20250162973A1, “METHODS OF SYNTHESIS AND USES OF AGRIMOL COMPOUNDS” (Versitech Limited, priority 2022, published 2025).

Columns and labels:
NCI-H460 cells = experiment: Cell colony formation (clonogenic) assay; format: cell-based, human
Description: For the colony formation assay, cells were treated with indicated concentrations of AGB for 8 h, then AGB was then removed and 200 cells were trypsinized and seeded into a new 12-well cell culture plate containing 1.5 ml of complete cell growth medium. After cells were grown for 14 days, cells were then fixed with ethanol followed a staining by crystal violet (0.05%, w/v, in water) for 15 min. The cell colonies were captured under the microscope and the number of colonies was calculated by ImageJ (version 1.50i, NIH, USA, internet site imagej.nih.gov).

[1] = test system: U2OS cells transfected with mitochondrial-RFP reporter gene; experiment: Time-lapse microscopy of mitochondrial morphology; format: cell-based, human; conditions: 30 hour, 4 μM AGB treatment
Description: Another cluster highlighted in the ProTargetMiner analysis was related to mitochondrial translation and respiration function. Time-lapse microscopy was used to monitor the changes of mitochondrial morphology during a 30 hour, 4 μM AGB treatment using U2OS cells transfected with mitochondrial-RFP reporter gene (data not shown). AGB indeed triggers dynamic changes of mitochondria. As shown in the movie recorded using time-lapse microscopy (data not shown), about 5 hours after the start of the imaging, mitochondria changed to a thread-like, very elongated morphology. Then the threads slowly broke up. At about 10 h, the mitochondria became small dots and these dots got brighter. At the end of the movie (about 30 h treatment), some cells underwent mitochondrial outer membrane permeabilization (the abrupt loss of fluorescence in mitochondria) and died.

[2] = test system: CCD-19Lu (human lung fibroblast normal cell); experiment: MTT cell viability assay, normal cell; format: cell-based; conditions: 48-h treatment
Description: SUNE1 (nasopharyngeal carcinoma), AGS (gastric adenocarcinoma), HeLa (cervix adenocarcinoma), HepG2 (hepatocellular carcinoma), U-87 MG (human glioblastoma cell), U2OS (osteosarcoma), MCF-7 (breast adenocarcinoma), MDA-MB-231 (breast adenocarcinoma), HCT116 (colorectal carcinoma), SW480 (colorectal adenocarcinoma), NCI-H460 (large cell lung carcinoma), NCI-H1650 (adenocarcinoma lung carcinoma), HCC827 (adenocarcinoma lung carcinoma), A549 (lung carcinoma), and CCD-19Lu (human lung fibroblast normal cell) were all obtained from American Type Culture Collection (ATCC, Manassas, VA, USA). Minimum Essential Media (MEM, Gibco®, ThermoFisher Scientific), Dulbecco's Modified Eagle Medium (DMEM, Gibco®, ThermoFisher Scientific), and RPMI-1640 Medium (Gibco®, ThermoFisher Scientific) supplemented with 10% Fetal Bovine Serum (Gibco®, ThermoFisher Scientific), and 100 U/mL penicillin-streptomycin (Gibco™, ThermoFisher Scientific) were used for cell culture. Cells were placed into an incubator with 5% CO2 that temperature was set at 37° C. […]
The cell viability assay was performed by a typical MTT assay. […] The formed formazan was then dissolved with SDS solution (10% SDS in 10 mM HCl) and followed the determination of absorbance at 590 nm by a microplate reader. The change in cell viability was then calculated for each drug concentration, then normalized to control. […]

A549 xenograft = experiment: Human tumor xenograft model; format: in vivo, nude mice; conditions: AGB 3 mg/kg, tail intravenous injection
[3] = test system: stem-like NCI-H460 xenograft; experiment: Cancer stem like xenograft model; format: in vivo, NOD/SCID mice; conditions: AGB 3 mg/kg, tail intravenous injection
Description: In vivo anticancer efficacy of AGB was evaluated using the human tumor xenograft model, in which human cancer cells were inoculated into immune-deficiency mice. Briefly, twelve six-week-old (16-18 g) BALB/c nude mice were randomly divided into two groups and both received subcutaneous injection of NCI-H460 cells (2 million cells in 0.1 mL PBS) at its right flank of mice and tumor became palpable after three days of injection. Mice were received intravenous (i.v.) injections of AGB or vehicle control (10% DMSO and 0.05% Tween 80 in normal saline) every two days in two weeks. The length and width of tumor were measured by Vernier caliper and the body weight was monitored every two or three days. At the end of experiment, mice were sacrificed and decapitated. The liver, kidney, and tumor were collected and fixed in 4% formaldehyde for further haematoxylin and eosin (H&E) staining. All animal experiments in this project received human care and study protocols complied with the guidelines of the Laboratory Animal Services Centre of the University of Hong Kong. Tumor sizes and body weight were recorded before the drug injection every time and tumor volume (V) was calculated by the formula V=LW^2/2, where L is tumor length and W is tumor width. […]
The in vivo antitumor potential of AGB using the xenograft mouse model was assessed. […]

[4] = Serum biochemical examination in MTD test; format: in vivo; conditions: 12.8 mg/kg
Description: The MTD test in this study was done in collaboration with Tianjin Institute of Pharmaceutical Research (TIPR). […] A total of 80 mice were randomly assigned into four groups (10 male and 10 female mice in each group) in this study. Four groups included 16.0 mg/kg of AGB group, 12.8 mg/kg of AGB group, vehicle control group (10% DMSO+0.8% Tween-80 in normal saline), and the blank control group (normal saline).
Then, the body weights of surviving animals were measured on the 1st, 3rd, 7th and 14th days, respectively. At the end of experiment, the hematology, blood biochemistry, anatomical examination, and histopathology examination were performed in both vehicle control group and the MTD group (12.8 mg/kg). The data were presented as the mean±standard deviation.

SMILES: CCCC(=O)c1c(O)c(Cc2c(O)c(Cc3c(O)c(C)c(OC)c(C(=O)CCC)c3O)c(O)c(C(=O)[C@@H](C)CC)c2O)c(O)c(C)c1OC [AGB, Agrimol B]
- AGB concentration over which colonies numbers were significantly reduced (NCI-H460 cells; 8 h treatment, colonies counted after two weeks): over 2.5 μM
- concentration giving significant reduction of cell colony formation (NCI-H460 cells; clonogenicity assay): around 4 μM
- mitochondrial morphology [1]: cells underwent a mitochondrial fission
- IC50 [2]: 31.1 µM
- tumor growth inhibition rate (A549 xenograft): 60%
- tumor growth inhibition rate [3]: 64%
- serum biochemical abnormalities vs vehicle control ([4]; 14 days after administration): no obvious abnormalities
- ALB ([4]; day 14): 17.73 ± 5.07 g/L
- ALP ([4]; day 14): 153.67 ± 37.63 U/L
- ALT ([4]; day 14): 26.09 ± 2.23 U/L
- AST ([4]; day 14): 85.74 ± 15.96 U/L
- BUN ([4]; day 14): 4.58 ± 2.24 mmol/L
- CK ([4]; day 14): 953.09 ± 480.50 U/L
- CREA ([4]; day 14): 34.11 ± 3.61 µmol/L
- GGT ([4]; day 14): 0.07 ± 0.08 U/L
- GLU ([4]; day 14): 9.10 ± 3.07 mmol/L
- LDH ([4]; day 14): 403.54 ± 92.68 U/L
- T.BIL ([4]; day 14): 1.75 ± 0.45 µmol/L
- T.CHO ([4]; day 14): 3.68 ± 1.60 mmol/L
- TG ([4]; day 14): 1.41 ± 0.59 mmol/L
- TP ([4]; day 14): 45.93 ± 13.71 g/L
